Reference: paper PMC9570042, “Impairment of Nucleolin Activity and Phosphorylation by a Trachylobane Diterpene from Psiadia punctulata in Cancer Cells” (International Journal of Molecular Sciences, 2022)

Tests used:
hNcl [1] = target: T1, hNcl (Homo sapiens, UniProt P19338); experiment: CETSA-based EC50 determination in HeLa cells; type: cell-based; parameters: endogenous in cells; host or cells: HeLa (cervical carcinoma); settings: 2 h, heated at 55.5 °C, read-out: EC50 (concentration producing half of the maximum effect on hNcl stabilization)
T1 sequence (P19338 whole entry): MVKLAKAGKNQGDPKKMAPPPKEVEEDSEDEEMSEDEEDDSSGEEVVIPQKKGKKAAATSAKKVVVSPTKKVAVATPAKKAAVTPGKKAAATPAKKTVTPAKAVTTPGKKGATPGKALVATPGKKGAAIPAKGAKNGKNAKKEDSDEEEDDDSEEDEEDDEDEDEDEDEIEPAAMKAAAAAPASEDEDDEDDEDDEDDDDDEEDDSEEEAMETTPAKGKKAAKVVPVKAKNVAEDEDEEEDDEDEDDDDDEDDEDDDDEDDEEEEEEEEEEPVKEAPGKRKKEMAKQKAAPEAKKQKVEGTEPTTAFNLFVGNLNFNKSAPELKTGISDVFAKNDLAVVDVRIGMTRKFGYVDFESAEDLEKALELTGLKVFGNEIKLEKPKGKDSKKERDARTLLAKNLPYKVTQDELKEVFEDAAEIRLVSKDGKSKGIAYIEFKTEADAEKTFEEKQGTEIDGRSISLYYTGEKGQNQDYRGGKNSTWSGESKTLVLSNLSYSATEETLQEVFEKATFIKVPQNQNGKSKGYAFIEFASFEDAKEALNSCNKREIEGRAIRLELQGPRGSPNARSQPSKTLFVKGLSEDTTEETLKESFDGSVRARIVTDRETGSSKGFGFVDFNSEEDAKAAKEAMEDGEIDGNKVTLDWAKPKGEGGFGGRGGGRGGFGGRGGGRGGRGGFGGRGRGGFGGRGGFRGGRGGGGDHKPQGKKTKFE
Description: The 12/hNcl interaction was also investigated using CETSA and its effect on the hNcl denaturation temperature (Tm) in the cells was analyzed. HeLa cells incubated with 12, oridonin or the vehicle were heated to different temperatures in the 38–61 °C range, and the amount of soluble hNcl remaining at each T value was measured. […] Further CETSAs were performed using various concentrations of the compound (1–20 μM) and the amount of hNcl resisting thermal denaturation at 55.5 °C was then reported in a graph as a function of the concentration of 12 used (Figure S3 and Figure 1E). This experiment allowed the calculation of an EC50 (the compound concentration producing half of the maximum effect on hNcl stabilization) of 5 μM.
HeLa cells were seeded at 1.0 × 10^5 in 12-well plates. The treatment was performed for 2 h using compound 12 at the following concentrations: 0.1, 0.5, 1, 2, 5, 10, 15, and 20 μM. Subsequently, the drug-containing media were removed through centrifugation; the cells were washed with PBS, aliquoted in 0.2 mL tubes, and then heated at 55.5 °C (Tm of hNcl) for 3 min. They were then lysed and analyzed, as reported above. The hNcl/Gapdh density ratio measured at the […] concentration producing the maximum stabilizing effect was set as 100%.

hNcl [2] = target: T1, hNcl; experiment: CETSA-based screening of hNcl interactors in Jurkat cells; type: cell-based; parameters: endogenous in cells; settings: 20 μM, 2 h, heated at 55 °C, positive control oridonin
Description: Based on previously published results, CETSA experiments were carried out using a Jurkat cell line using the in-cell hNcl denaturation temperature of 55 °C. The efficacy of the different testing compounds in preventing or reducing hNcl aggregation at that temperature was monitored by Western blot (Figure S1B).
Jurkat cells were seeded at 4.0 × 10^5 cells/mL. After 24 h, the cells were treated with diterpenes or the positive control oridonin (final concentration 20 μM) and then incubated for 2 h in a CO2 incubator at 37 °C. Afterward, the cells were collected and centrifuged, and the cell pellets were washed with PBS and gently suspended in 1 mL PBS supplemented with protease inhibitors. Each cell suspension (DMSO, positive control, and treated samples) was heated in a PCR machine (Invitrogen Life Science Technologies, Waltham, MA, USA) at 55 °C for 3 min. The cells were then lysed via freezing/thawing and centrifuged at 4 °C for 20 min at 20,000× g. Subsequently, the proteins were fractionated via SDS-PAGE and analyzed by Western blot. Densitometric analysis of the bands was performed using the ImageJ software. The results were plotted on graphs reporting the ratio between the density measured for each nucleolin band and the density measured for the corresponding Gapdh band. For the histogram plot, the expression level of the nucleolin protein was normalized to the negative control.

HeLa cells [3] = experiment: Protein neo-synthesis in HeLa cells; type: cell-based, human; settings: 20 μM
HeLa cells [4] = experiment: Cell cycle analysis by cytofluorimetry (PI staining), HeLa cells; type: cell-based, human; settings: 10 μM and 20 μM, 48 h
Description: HeLa cells were seeded at 5.0 × 10^5 in 100 mm culture dishes. The day after, the cells were treated with DMSO and 12 at 10 μM and 20 μM for 48 h. The cell cycle was evaluated by propidium iodide (PI) staining of permeabilized cells (BD FACSCalibur flow cytometer, Becton Dickinson, San Jose, CA, USA). Data from 5000 events per sample were collected. The percentages of the elements in the hypodiploid region and in G0/G1, S, and G2/M phases of the cell cycle were calculated using the CellQuest and MODFIT software, respectively. The apoptosis analysis was carried out according to the protocol described in Annexin V, FITC Apoptosis Detection Kit (Dojindo EU GmbH, Munich, Germany). The samples were detected by Flow Cytometry (BD FACSCalibur flow cytometer, Becton Dickinson, San Jose, CA, USA) and analyzed by BD FACSuite software.

hNcl [5] = experiment: hNcl distribution in cell compartments (nucleus, cytosol, membrane); type: cell-based, human; settings: HeLa cells, 20 μM, 4 h
Description: The observed decrement of phosphorylated hNcl (p-hNcl) seems to be attributable to the overall decrease in its levels rather than to a modification of its cellular distribution.
For cytosol and membrane protein extraction, the HeLa cells were seeded at 1.5 × 10^6 in 100 mm culture dishes and incubated with oridonin (5 μM) or compound 12 (20 μM) for 4 h at 37 °C. The cells were harvested in PBS and centrifuged at 4 °C for 5 min at 600× g. Subsequently, the cell pellets were resuspended in lysis buffer (20 mM Tris HCl pH 7.4, 250 mM sucrose, 1 mM dithiothreitol (DTT), protease inhibitors, and 1 mM EDTA in water), sonicated (5 s pulse–9 s pause for 2 min, amplitude 42%) and then centrifuged at 4 °C for 10 min at 5000× g. The obtained supernatants were ultra-centrifuged at 4 °C for 1 h at 100,000× g, and cytosolic extracts were obtained. Each resulting pellet was resuspended in a lysis buffer and ultracentrifuged at 4 °C for 1 h at 100,000× g. The pellets were then resuspended in 250 μL solubilization buffer (20 mM Tris HCl pH 7.4, 1 mM DTT, 1 mM EDTA, and 1% Triton X-100 in water) and left overnight on an orbital shaker at 4 °C. After that, the solution was centrifuged at 4 °C for 30 min at 50,000× g, and membrane proteins were obtained. […]

## CC1(CO)CCCC2(C)C1C(O)CC13CC4C(CC12)C4(C(=O)O)C3 (stereo not drawn) [compound 12, 6,19-dihydroxy-ent-trachiloban-17-oic acid]
hNcl [1]
  EC50: 5 µM
hNcl [2]
  protection of hNcl from aggregation in CETSA: effect higher than that of the positive control
HeLa cells [3]
  protein neo-synthesis vs untreated cells: no significant differences
HeLa cells [4]
  cell accumulation in the subG0/G1 phase: dose-dependent manner
hNcl [5]
  distribution of hNcl in the different cell compartments: did not show dramatic variations
